Assay results taken from publication PMC7529893, “Structural basis for substrate recognition and chemical inhibition of oncogenic MAGE ubiquitin ligases” (Nature Communications, 2020).

Biological target: T1, MAGE-A11:PCF11 interaction (GST-MAGE-A11 and FAM-PCF11_4) (Homo sapiens, UniProt P43364)
T1 construct: GST-MAGE-A11 MHD (human MAGE-A11 MHD amino acid 218-429); made in house; host or cells: E. coli BL21(DE3)
T1 sequence (P43364 218-429): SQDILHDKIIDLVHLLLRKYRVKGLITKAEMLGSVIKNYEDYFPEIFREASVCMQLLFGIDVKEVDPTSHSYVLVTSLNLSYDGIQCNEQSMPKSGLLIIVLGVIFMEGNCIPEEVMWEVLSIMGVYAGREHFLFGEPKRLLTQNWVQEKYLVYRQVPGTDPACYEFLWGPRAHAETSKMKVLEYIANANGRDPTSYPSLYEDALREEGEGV
Assay: TR-FRET primary / single point screen at 15 µM
Format: binding
Outline: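 Single-point screen at 15 µM final compound in 50 mM Tris pH 7.5, 20 mM MgCl2, 0.1 mg/ml BSA, 1 mM DTT, with 200 nM FAM-PCF11_4, 5 nM Tb-anti-GST and 5 nM GST-MAGE-A11. After 90 min at room temperature, the 520/490 nm TR-FRET ratio (340 nm excitation) gave %Inhibition against no-MAGE-A11 and DMSO controls.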

[1] = single point TR-FRET screening of 797 quinoline compounds against MAGE-A11:PCF11
[2] = single point TR-FRET screening of quinoline compounds against MAGE-A11:PCF11, 15 µM

SMILES | percent inhibition (TR-FRET) [1] | percent inhibition (TR-FRET) [2]
Cn1cc(CN(CCCCNc2ccnc3cc(Cl)ccc23)Cc2ccccc2)c2ccccc21 [SJ000520440] | -14.3502 | 
COc1ccc(F)c(CN(CCCCNc2ccnc3cc(Cl)ccc23)Cc2ccccc2)c1 [SJ000520441] | 14.5458 | 
CCc1ccc(CN(CCCNc2ccnc3cc(Cl)ccc23)Cc2ccccc2)cc1 [SJ000520442] |  | 18.8867
CCc1ccc(CN(CCCCNc2ccnc3cc(Cl)ccc23)Cc2ccccc2)cc1 [SJ000520443] | 29.9089 | 
COc1ccc(C(F)(F)F)cc1CN(CCCCNc1ccnc2cc(Cl)ccc12)Cc1ccccc1 [SJ000520444] | 31.8155 | 
COc1ccc(F)c(CN(CCCNc2ccnc3cc(Cl)ccc23)Cc2ccccc2)c1 [SJ000520445] |  | 4.762
Clc1ccc2c(NCCCCN(Cc3ccccc3)Cc3csc4ccccc34)ccnc2c1 [SJ000520446] | 33.9765 | 
COc1ccc(OC(F)(F)F)cc1CN(CCCCNc1ccnc2cc(Cl)ccc12)Cc1ccccc1 [SJ000520447] | 26.6585 | 
Clc1ccc2c(NCCCCN(Cc3ccccc3)Cc3nccs3)ccnc2c1 [SJ000520448] | -1.698 | 
Cc1ccc(F)cc1CN(CCCCNc1ccnc2cc(Cl)ccc12)Cc1ccccc1 [SJ000520449] | 42.3236 | 
COc1ccc(C(F)(F)F)cc1CN(CCCNc1ccnc2cc(Cl)ccc12)Cc1ccccc1 [SJ000520450] |  | 23.1782
FC(F)(F)Oc1ccc(CN(CCCCNc2ccnc3cc(Cl)ccc23)Cc2ccccc2)cc1 [SJ000520451] | 39.8725 | 
COc1ccc(OC(F)(F)F)cc1CN(CCCNc1ccnc2cc(Cl)ccc12)Cc1ccccc1 [SJ000520452] |  | 20.4443
Clc1ccc2c(NCCCCN(Cc3ccccc3)Cc3cccnc3Br)ccnc2c1 [SJ000520453] | 2.377 | 
Clc1ccc2c(NCCCN(Cc3ccccc3)Cc3csc4ccccc34)ccnc2c1 [SJ000520454] |  | 28.1386
FC(F)(F)c1cccc(CN(CCCCNc2ccnc3cc(Cl)ccc23)Cc2ccccc2)c1 [SJ000520455] | 26.3784 | 
Cc1csc(CN(CCCCNc2ccnc3cc(Cl)ccc23)Cc2ccccc2)n1 [SJ000520456] | -12.8602 | 
FC(F)(F)Oc1cccc(CN(CCCCNc2ccnc3cc(Cl)ccc23)Cc2ccccc2)c1 [SJ000520457] | 33.314 | 
Cc1ccc(F)cc1CN(CCCNc1ccnc2cc(Cl)ccc12)Cc1ccccc1 [SJ000520458] |  | 29.7727
FC(F)(F)Oc1ccccc1CN(CCCCNc1ccnc2cc(Cl)ccc12)Cc1ccccc1 [SJ000520459] | 30.8594 | 
FC(F)(F)Oc1ccc(CN(CCCNc2ccnc3cc(Cl)ccc23)Cc2ccccc2)cc1 [SJ000520460] |  | 25.0481
Clc1ccc2c(NCCCN(Cc3ccccc3)Cc3cc4ccccc4o3)ccnc2c1 [SJ000520461] |  | 5.6
Clc1ccc2c(NCCCN(Cc3ccccc3)Cc3cccnc3Br)ccnc2c1 [SJ000520462] |  | 9.715

SMILES | percent inhibition (TR-FRET) [1] | percent inhibition (TR-FRET) [2]
Cc1csc(CN(CCCNc2ccnc3cc(Cl)ccc23)Cc2ccccc2)n1 [SJ000520463] |  | -10.469
FC(F)(F)Oc1cccc(CN(CCCNc2ccnc3cc(Cl)ccc23)Cc2ccccc2)c1 [SJ000520464] |  | 27.7788
Fc1cccc(C(F)(F)F)c1CN(CCCCNc1ccnc2cc(Cl)ccc12)Cc1ccccc1 [SJ000520465] | 28.7514 | 
FC(F)(F)c1cc(CN(CCCCNc2ccnc3cc(Cl)ccc23)Cc2ccccc2)ccc1Cl [SJ000520466] | 25.2787 | 
Fc1cccc(C(F)(F)F)c1CN(CCCNc1ccnc2cc(Cl)ccc12)Cc1ccccc1 [SJ000520467] |  | 22.0104
CCCN(CCCNc1ccnc2cc(C(F)(F)F)ccc12)Cc1c[nH]c2ccccc12 [SJ000520468] |  | 16.1561
CCCN(CCCNc1ccnc2cc(C(F)(F)F)ccc12)Cc1cn(C)c2ccccc12 [SJ000520469] |  | 25.5382
CCCN(CCCNc1ccnc2cc(C(F)(F)F)ccc12)Cc1ccccc1OC(F)(F)F [SJ000520470] |  | 5.934
CCCN(CCCNc1ccnc2cc(C(F)(F)F)ccc12)Cc1cccc(C(F)(F)F)c1 [SJ000520471] |  | 13.0224
CCCN(CCCNc1ccnc2cc(C(F)(F)F)ccc12)Cc1cccc2c1OCO2 [SJ000520472] |  | 14.6158
CCCN(CCCNc1ccnc2cc(C(F)(F)F)ccc12)Cc1cccc(OC(F)(F)F)c1 [SJ000520473] |  | 9.085
CCCN(CCCNc1ccnc2cc(C(F)(F)F)ccc12)Cc1ccc(OC(F)(F)F)cc1 [SJ000520474] |  | 17.3802
CCCN(CCCNc1ccnc2cc(C(F)(F)F)ccc12)Cc1cc(F)ccc1OC [SJ000520475] |  | 15.746
CCCN(CCCNc1ccnc2cc(C(F)(F)F)ccc12)CCC(C)(C)C [SJ000520476] |  | 32.3298
CCCCN(CCC)CCCNc1ccnc2cc(C(F)(F)F)ccc12 [SJ000520477] |  | 23.5778
CCCN(CCCNc1ccnc2cc(C(F)(F)F)ccc12)Cc1cc(Br)cs1 [SJ000520478] |  | -9.243
CCCN(CCCNc1ccnc2cc(C(F)(F)F)ccc12)Cc1cc2ccccc2o1 [SJ000520479] |  | -20.4102
CCCN(CCCNc1ccnc2cc(C(F)(F)F)ccc12)Cc1cc(OC)ccc1F [SJ000520480] |  | 11.9552
CCCN(CCCNc1ccnc2cc(C(F)(F)F)ccc12)Cc1c(F)cccc1C(F)(F)F [SJ000520481] |  | 11.4651
CCCN(CCCNc1ccnc2cc(C(F)(F)F)ccc12)Cc1cc2ccccc2s1 [SJ000520482] |  | 13.0054
CCCN(CCCNc1ccnc2cc(C(F)(F)F)ccc12)Cc1csc2ccccc12 [SJ000520483] |  | 19.4469
CCCN(CCCNc1ccnc2cc(C(F)(F)F)ccc12)Cc1nc2ccccc2s1 [SJ000520484] |  | 7.404
CCCN(CCCNc1ccnc2cc(C(F)(F)F)ccc12)Cc1cc(OC(F)(F)F)ccc1OC [SJ000520485] |  | 5.6

SMILES | percent inhibition (TR-FRET) [1] | percent inhibition (TR-FRET) [2]
CCCN(CCCNc1ccnc2cc(C(F)(F)F)ccc12)Cc1cc(C(F)(F)F)ccc1OC [SJ000520486] |  | 8.188
O=[N+]([O-])c1ccc(CNCCCNc2ccnc3cc(Cl)ccc23)s1 [SJ000520912] |  | 6.284
Clc1ccc2c(NCCCNCc3ccoc3)ccnc2c1 [SJ000520913] |  | -11.15
COc1ccc2nc3cc(Cl)ccc3c(NCCCNCc3ccc4[nH]ccc4c3)c2c1 [SJ000520914] | -184.229 | 
COc1ccc2nc3cc(Cl)ccc3c(NCCCNCc3c(F)cccc3OC)c2c1 [SJ000520915] | -298.775 | 
COc1ccc2nc3cc(Cl)ccc3c(NCCCNCc3ccoc3)c2c1 [SJ000520916] | -299.405 | 
CCCN(CCC)CCCNc1c2ccc(Cl)cc2nc2ccc(OC)cc12 [SJ000520917] | -288.202 | 
CCCN(CCCNc1c2ccc(Cl)cc2nc2ccc(OC)cc12)Cc1ccncc1 [SJ000520918] |  | -1.797
CCCN(CCCNc1c2ccc(Cl)cc2nc2ccc(OC)cc12)Cc1ccccn1 [SJ000520919] | -146.21 | 
CCCN(CCCNc1c2ccc(Cl)cc2nc2ccc(OC)cc12)Cc1cccs1 [SJ000520920] | -164.134 | 
CCCN(CCCNc1c2ccc(Cl)cc2nc2ccc(OC)cc12)Cc1sccc1C [SJ000520921] |  | -83.8109
CCCN(CCCNc1c2ccc(Cl)cc2nc2ccc(OC)cc12)Cc1ccsc1 [SJ000520922] | -258.026 | 
CCCN(CCCNc1c2ccc(Cl)cc2nc2ccc(OC)cc12)Cc1ccc[nH]1 [SJ000520923] | -271.048 | 
CCCN(CCCNc1c2ccc(Cl)cc2nc2ccc(OC)cc12)Cc1ccc(Br)s1 [SJ000520924] |  | -56.4502
CCCN(CCCNc1c2ccc(Cl)cc2nc2ccc(OC)cc12)Cc1ccccc1 [SJ000520925] | -127.926 | 
CCCN(CCCNc1c2ccc(Cl)cc2nc2ccc(OC)cc12)Cc1ccccc1O [SJ000520926] |  | -91.8376
CCCN(CCCNc1c2ccc(Cl)cc2nc2ccc(OC)cc12)Cc1ccc(C)s1 [SJ000520927] | -124.818 | 
CCCN(CCCNc1c2ccc(Cl)cc2nc2ccc(OC)cc12)Cc1ccccc1C(F)(F)F [SJ000520928] |  | 14.1686
CCCN(CCCNc1c2ccc(Cl)cc2nc2ccc(OC)cc12)Cc1ccc(Br)o1 [SJ000520929] | -137.318 | 
CCCN(CCCNc1c2ccc(Cl)cc2nc2ccc(OC)cc12)Cc1cccc(OC)c1O [SJ000520930] |  | -81.9559
CCCN(CCCNc1c2ccc(Cl)cc2nc2ccc(OC)cc12)Cc1cc(F)ccc1OC [SJ000520931] |  | 1.847
CCCN(CCCNc1c2ccc(Cl)cc2nc2ccc(OC)cc12)Cc1ccc(C)o1 [SJ000520932] |  | 0.9854
CCCN(CCCNc1c2ccc(Cl)cc2nc2ccc(OC)cc12)Cc1cc(OC)ccc1O [SJ000520933] | -150.831 | 
